Experimental findings from patent US20160303127A1, “COMBINATION THERAPY WITH C-MET AND EGFR ANTAGONISTS” (Genentech, Inc., priority 2008, published 2016) are described below.

One experiment concerns NCI-H596 cells. As to the kind of experiment: NCI-H596 cell viability assay (Celltiter-Glo) with TGFα +/- HGF. Format: cell-based, human. The method, then: Cells: NCI-H596 cells were obtained from the American Type Culture Collection (ATCC) and were maintained in RPMI 1640 supplemented with 10% fetal bovine serum (FBS; Sigma, St. Louis, Mo.), and 2 mM L-glutamine. Cell assay media was changed as described below depending upon the experiment.
Therapeutics and Growth factors: Erlotinib and MetMAb were from Genentech, Inc., as described above. HGF and TGFα were generated at Genentech.
Cell Viability Assays: For cell viability assays, cells were plated in quadruplicate at 1×10^3 cells per well in 384-well plates in RPMI containing 0.5% FBS (assay medium) overnight, prior to stimulation with assay medium containing 3 nM TGF-a+/−HGF. Erlotinib was added at multiple concentrations and 72 hours later, cell viability was measured using the Celltiter-Glo Luminescent Cell Viability Assay (Promega, Madison, Wis.).
To determine whether activation of the c-met pathway could change the response of NCI-N596 cells to erlotinib, cells were stimulated with TGFα, treated with erlotinib and/or HGF, then cell viability was assayed.

Another experiment concerns Akt. As to the kind of experiment: phospho-Akt in NCI-H596 hu-HGF-Tg-SCID xenograft tumors (immunoblot). Format: in vivo, human. As to conditions: MetMAb 30 mg/kg 24 h, erlotinib 150 mg/kg 6 h prior to harvest, average of 5 animals. The method, then:
NCI-H596 hu-HGF-Tg-SCID xenograft tumors: NCI-H596 xenografts were established in hu-HGF-Tg-SCID mice as described in Example 4. Tumors were allowed to grow to 200-300 mm^3 prior to treatment. Dosing was performed as described in Table 8. Briefly, MetMAb (30 mg/kg) or MetMAb buffer was dosed at time zero hours (0 hr) and methylcellulose tween vehicle (MCT) or erlotinib (150 mg/kg) was dosed at time 18 hours (18 hr). Mice were euthanized and tumors and plasma collected at time 24 hours (24 hr). Tumors were snap frozen in liquid nitrogen and then kept at −70° C. until they were processed for immunoprecipitation and immunoblotting.
Immunoprecipitations and Immunoblotting: To process tumors for protein analysis, tumors were first homogenized using a glass dounce with lysis buffer (Cell Signaling Technology, Inc., Danvers, Mass.), supplemented with 1 mM PMSF, additional protease inhibitor cocktail, and phosphatase inhibitor cocktail I and II (Sigma, Inc., St. Louis, Mo.). […] Protein concentrations were determined using the BCA™ Protein Assay Kit (Pierce, Inc., Rockford, Ill.) and samples were immunoblotted. […] Samples were then analyzed by SDS-PAGE and immunoblotting. […] Immunoblots were imaged and phospho-protein levels were quantified and normalized to total protein levels (e.g. pEGFR over total EGFR) using an Odyssey imager (LI-COR Biosciences, Lincoln, Nebr.). […]
(In general: Xenograft models place foreign cells or tissue in a host animal.)

Where “and” joins values, the source holds several entries; their conditions need not be identical. Equal values may be shown once. Entries after “also recorded” stand apart in the source; their conditions may differ.

As for `C#Cc1cccc(Nc2ncnc3cc(OCCOC)c(OCCOC)cc23)c1` [erlotinib, N-(3-ethynylphenyl)-6,7-bis(2-methoxyethoxy)-4-quinazolinamine], in the experiment on NCI-H596 cells (TGFα plus HGF 0.5 to 50 ng/ml, 72 hours), the “sensitivity (response) of cells to erlotinib in the presence of HGF” value is given as “Reduction in relative response; also recorded: dramatically reduced in a dose-dependent manner; also recorded: attenuated response”. Besides, the “cell viability when grown in the presence of erlotinib and TGFα” value with NCI-H596 cells (TGFα, no HGF) is given as “reduced cell viability”. Besides, the “pAkt/total Akt” value in the experiment with Akt (listed as Erlotinib) was 45% (+/−25.7%) % of vehicle control and 45 (±25.7) % of vehicle control.

B1: MetMAb: Anti-c-met monovalent monoclonal antibody MetMAb (rhuOA5D5v2) (WO2007/063816) (antibody, chains of the INN, looked up, V domains shown)
VH: EVQLVESGGGLVQPGGSLRLSCAASGYTFTSYWLHWVRQAPGKGLEWVGMIDPSNSDTRFNPNFKDRFTISADTSKNTAYLQMNSLRAEDTAVYYCATYRSYVTPLDYWGQGTLVTVSS
VL: DIQMTQSPSSLSASVGDRVTITCKSSQSLLYTSSQKNYLAWYQQKPGKAPKLLIYWASTRESGVPSRFSGSGSGTDFTLTISSLQPEDFATYYCQQYYAYPWTFGQGTKVEIK
modifications: one-armed
Regarding B1, the “effect of MetMAb on erlotinib sensitivity (cell viability)” value with NCI-H596 cells (TGFα and HGF (50 ng/ml), MetMAb 1 μM, varying erlotinib) is on record as “dramatically restored erlotinib sensitivity”. Besides, in the experiment with Akt, the “pAkt/total Akt” value was 72% (+/−27.9%) % of vehicle control and 72 (±27.9) % of vehicle control.
